The record followed here is US12582641B2, “Sulfur-containing compound based on glutarimide skeleton and application thereof” (SHANGHAITECH UNIVERSITY, priority 2019, dated 2026).

This assay has as its system MM.1S cells. Briefly: Proliferation inhibition (IC50) in MM.1S cells, cell viability assay. The conditions noted are these: Homo sapiens, MM1.S, 72 h, read-out: IC50 (nM), proliferation inhibitory activity of MM.1S cells (half inhibitory concentration).
As for `O=C1CCC(N2Cc3c(SCCCCCCCN4Cc5ccccc5C4)cccc3C2=O)C(=O)N1` (centres unmarked) [SIAIS1224033, 3-(4-((7-(isoindolin-2-yl)heptyl)thio)-1-oxoisoindolin-2-yl)piperidine-2,6-dione], the IC50 was 0.082 nM.

For the molecule `O=C1CCC(N2Cc3c(SCCCCCCCN[C@@H]4CN5CCC4CC5)cccc3C2=O)C(=O)N1` (stereo partly drawn) [SIAIS1224035, 3-(1-oxo-4-((7-(((S)-quinuclidin-3-yl)amino)heptyl)thio)isoindolin-2-yl)piperidine-2,6-dione], the IC50 turned out to be 15.1 nM.

Turning to `O=C1CCC(N2Cc3c(SCCCCCCCN[C@H]4CN5CCC4CC5)cccc3C2=O)C(=O)N1` (stereo partly drawn) [SIAIS1224037, 3-(1-oxo-4-((7-(((R)-quinuclidin-3-yl)amino)heptyl)thio)isoindolin-2-yl)piperidine-2,6-dione], the IC50 is 14 nM.

On to `CS(=O)(=O)N1CCN(CCCCCCCSc2cccc3c2CN(C2CCC(=O)NC2=O)C3=O)CC1` (centres unmarked) [SIAIS1224039, 3-(4-((7-(4-(methylsulfonyl)piperazin-1-yl)heptyl)thio)-1-oxoisoindolin-2-yl)piperidine-2,6-dione], for which the IC50 came to 0.54 nM.

Take `O=C1CCC(N2Cc3c(SCc4ccc(CN5CCSCC5)cc4)cccc3C2=O)C(=O)N1` (centres unmarked) [SIAIS1224089, 3-(1-oxo-4-((4-(thiomorpholinomethyl)benzyl)thio)isoindolin-2-yl)piperidine-2,6-dione]: the IC50 was determined as 0.144 nM.

On to `CN1C(=O)CCC(N2Cc3c(SCc4ccc(CN5CCCCC5)cc4)cccc3C2=O)C1=O` (centres unmarked) [SIAIS1224101, 1-methyl-3-(1-oxo-4-((4-(piperidin-1-ylmethyl)benzyl)thio)isoindolin-2-yl)piperidine-2,6-dione], for which the IC50 is 287 nM.

For the molecule `O=C1CCC(N2Cc3c(SCCc4ccc(CCN5CCCCC5)cc4)cccc3C2=O)C(=O)N1` (centres unmarked) [SIAIS1224117, 3-(1-oxo-4-((4-(2-(piperidin-1-yl)ethyl)phenethyl)thio)isoindolin-2-yl)piperidine-2,6-dione], the IC50 is 0.19 ± 0.01 nM.

For `O=C1CCC(N2Cc3c(SCCc4ccc(CCNC56CC7CC(CC(C7)C5)C6)cc4)cccc3C2=O)C(=O)N1` (centres unmarked) [SIAIS1224121, 3-(4-((4-(2-((adamantan-1-yl)amino)ethyl)phenethyl)thio)-1-oxoisoindolin-2-yl)piperidine-2,6-dione], the IC50 turned out to be 0.48 ± 0.05 nM.

For the molecule `O=C1CCC(N2Cc3c(SCCCCCCCN4CCSCC4)cccc3C2=O)C(=O)N1` (centres unmarked) [SIAIS1224125, 3-(1-oxo-4-((7-thiomorpholinoheptyl)thio)isoindolin-2-yl)piperidine-2,6-dione], the IC50 is 0.046 nM.

With `O=C1CCC(N2Cc3c(SCCc4ccc(CNC56CC7CC(CC(C7)C5)C6)cc4)cccc3C2=O)C(=O)N1` (centres unmarked) [SIAIS1224149, 3-(4-((4-(((adamantan-1-yl)amino)methyl)phenethyl)thio)-1-oxoisoindolin-2-yl)piperidine-2,6-dione], the IC50 was 0.44 ± 0.1 nM.

With `O=C1CCC(N2C(=O)c3cccc(SCCc4ccc(CNC56CC7CC(CC(C7)C5)C6)cc4)c3C2=O)C(=O)N1` (centres unmarked) [SIAIS1224151, 4-((4-(((adamantan-1-yl)amino)methyl)phenethyl)thio)-2-(2,6-dioxopiperidin-3-yl)isoindoline-1,3-dione], the IC50 is 3.41 nM.

In the case of `O=C1CCC(N2Cc3c(SCc4ccc(CCN5CCCCC5)cc4)cccc3C2=O)C(=O)N1` (centres unmarked) [SIAIS1224153, 3-(1-oxo-4-((4-(2-(piperidin-1-yl)ethyl)benzyl)thio)isoindolin-2-yl)piperidine-2,6-dione], the IC50 stood at 0.024 ± 0.002 nM.

As to `O=C1CCC(N2Cc3c(SCc4ccc(/C=C/Br)cc4)cccc3C2=O)C(=O)N1` (centres unmarked) [SIAIS1224154, (E)-3-(4-((4-(2-bromovinyl)benzyl)thio)-1-oxoisoindolin-2-yl)piperidine-2,6-dione], the IC50 was 0.809 nM.

For the molecule `O=C1CCC(N2Cc3c(SCc4ccc(CCNC5CCCCC5)cc4)cccc3C2=O)C(=O)N1` (centres unmarked) [SIAIS1224155, 3-(4-((4-(2-(cyclohexylamino)ethyl)benzyl)thio)-1-oxoisoindolin-2-yl)piperidine-2,6-dione], the IC50 turned out to be 0.021 ± 0.004 nM.

`O=C1CCC(N2Cc3c(SCCc4ccc(CN5CCCCC5)cc4)cccc3C2=O)C(=O)N1` (centres unmarked) [SIAIS1224161, 3-(1-oxo-4-((4-(piperidin-1-ylmethyl)phenethyl)thio)isoindolin-2-yl)piperidine-2,6-dione]: the IC50 is 3.62 nM.

With `O=C1CCC(N2C(=O)c3cccc(SCCc4ccc(CN5CCCCC5)cc4)c3C2=O)C(=O)N1` (centres unmarked) [SIAIS1224163, 2-(2,6-dioxopiperidin-3-yl)-4-((4-(piperidin-1-ylmethyl)phenethyl)thio)isoindoline-1,3-dione], the IC50 was 7.41 nM.

In the case of `O=C1CCC(N2Cc3c(SCCc4ccc(CNC5CCCCC5)cc4)cccc3C2=O)C(=O)N1` (centres unmarked) [SIAIS1227007, 3-(4-((4-((cyclohexylamino)methyl)phenethyl)thio)-1-oxoisoindolin-2-yl)piperidine-2,6-dione], the IC50 was determined as 0.67 ± 0.27 nM.

As for `O=C1CCC(N2C(=O)c3cccc(SCCc4ccc(CNC5CCCCC5)cc4)c3C2=O)C(=O)N1` (centres unmarked) [SIAIS1227019, 4-((4-((cyclohexylamino)methyl)phenethyl)thio)-2-(2,6-dioxopiperidin-3-yl)isoindoline-1,3-dione], the IC50 was 34.3 nM.

With `O=C1CCC(N2Cc3c(SCCCc4ccc(CN5CCCCC5)cc4)cccc3C2=O)C(=O)N1` (centres unmarked) [SIAIS1227035, 3-(1-oxo-4-((3-(4-(piperidin-1-ylmethyl)phenyl)propyl)thio)isoindolin-2-yl)piperidine-2,6-dione], the IC50 came to 0.14 ± 0.04 nM.

Consider `O=C1CCC(N2Cc3c(SCCCc4ccc(CNC56CC7CC(CC(C7)C5)C6)cc4)cccc3C2=O)C(=O)N1` (centres unmarked) [SIAIS1227037, 3-(4-((3-(4-(((adamantan-1-yl)amino)methyl)phenyl)propyl)thio)-1-oxoisoindolin-2-yl)piperidine-2,6-dione], for which the IC50 worked out at 0.04 ± 0.02 nM.

On to `O=C1CCC(N2C(=O)c3cccc(SCCCc4ccc(CN5CCCCC5)cc4)c3C2=O)C(=O)N1` (centres unmarked) [SIAIS1227039, 2-(2,6-dioxopiperidin-3-yl)-4-((3-(4-(piperidin-1-ylmethyl)phenyl)propyl)thio)isoindoline-1,3-dione], for which the IC50 was determined as 2.49 nM.

Consider `O=C1CCC(N2C(=O)c3cccc(SCCCc4ccc(CNC56CC7CC(CC(C7)C5)C6)cc4)c3C2=O)C(=O)N1` (centres unmarked) [SIAIS1227041, 4-((3-(4-(((adamantan-1-yl)amino)methyl)phenyl)propyl)thio)-2-(2,6-dioxopiperidin-3-yl)isoindoline-1,3-dione], for which the IC50 is 0.095 nM.

In the case of `O=C1CCC(N2Cc3c(SCc4ccc(CCCN5CCCCC5)cc4)cccc3C2=O)C(=O)N1` (centres unmarked) [SIAIS1227043, 3-(1-oxo-4-((4-(3-(piperidin-1-yl)propyl)benzyl)thio)isoindolin-2-yl)piperidine-2,6-dione], the IC50 was 0.024 ± 0.006 nM.

For the molecule `O=C1CCC(N2Cc3c(SCc4ccc(CCCNC5CCCCC5)cc4)cccc3C2=O)C(=O)N1` (centres unmarked) [SIAIS1227045, 3-(4-((4-(3-(cyclohexylamino)propyl)benzyl)thio)-1-oxoisoindolin-2-yl)piperidine-2,6-dione], the IC50 came to 0.06 ± 0.01 nM.

In the case of `O=C1CCC(N2Cc3c(SCc4ccc(CCCNC56CC7CC(CC(C7)C5)C6)cc4)cccc3C2=O)C(=O)N1` (centres unmarked) [SIAIS1227047, 3-(4-((4-(3-((adamantan-1-yl)amino)propyl)benzyl)thio)-1-oxoisoindolin-2-yl)piperidine-2,6-dione], the IC50 is 0.028 ± 0.003 nM.

Take `O=C1CCC(N2Cc3c(SCc4ccc(CCN5CCOCC5)cc4)cccc3C2=O)C(=O)N1` (centres unmarked) [SIAIS1227049, 3-(4-((4-(2-morpholinoethyl)benzyl)thio)-1-oxoisoindolin-2-yl)piperidine-2,6-dione]: the IC50 turned out to be 0.1 ± 0.05 nM.

For the molecule `O=C1CCC(N2Cc3c(SCc4ccc(CCN5CCSCC5)cc4)cccc3C2=O)C(=O)N1` (centres unmarked) [SIAIS1227051, 3-(1-oxo-4-((4-(2-thiomorpholinoethyl)benzyl)thio)isoindolin-2-yl)piperidine-2,6-dione], the IC50 came out at 0.004 ± 0.002 nM.

For `O=C1CCC(N2Cc3c(SCc4ccc(CCCN5CCOCC5)cc4)cccc3C2=O)C(=O)N1` (centres unmarked) [SIAIS1227053, 3-(4-((4-(3-morpholinopropyl)benzyl)thio)-1-oxoisoindolin-2-yl)piperidine-2,6-dione], the IC50 was determined as 0.079 nM.

Consider `CCN(CC)Cc1ccc(CSc2cccc3c2CN(C2CCC(=O)NC2=O)C3=O)cc1` (centres unmarked) [SIAIS1227055, 3-(4-((4-((diethylamino)methyl)benzyl)thio)-1-oxoisoindolin-2-yl)piperidine-2,6-dione], for which the IC50 was found to be 0.285 nM.

For the molecule `CC(C)N(Cc1ccc(CSc2cccc3c2CN(C2CCC(=O)NC2=O)C3=O)cc1)C(C)C` (centres unmarked) [SIAIS1227057, 3-(4-((4-((diisopropylamino)methyl)benzyl)thio)-1-oxoisoindolin-2-yl)piperidine-2,6-dione], the IC50 worked out at 0.252 nM.

On to `O=C1CCC(N2Cc3c(SCc4ccc(CN(C5CCCCC5)C5CCCCC5)cc4)cccc3C2=O)C(=O)N1` (centres unmarked) [SIAIS1227059, 3-(4-((4-((dicyclohexylamino)methyl)benzyl)thio)-1-oxoisoindolin-2-yl)piperidine-2,6-dione], for which the IC50 came out at 0.022 nM.

With `O=C1CCC(N2Cc3c(SCc4ccc(CNC56CC7CC(CC(O)(C7)C5)C6)cc4)cccc3C2=O)C(=O)N1` (centres unmarked) [SIAIS1227061, 3-(4-((4-(((3-hydroxyadamantan-1-yl)amino)methyl)benzyl)thio)-1-oxoisoindolin-2-yl)piperidine-2,6-dione], the IC50 came out at 0.721 nM.

For `O=C1CCC(N2Cc3c(SCCCc4ccc(CNC5CCCCC5)cc4)cccc3C2=O)C(=O)N1` (centres unmarked) [SIAIS1227067, 3-(4-((3-(4-((cyclohexylamino)methyl)phenyl)propyl)thio)-1-oxoisoindolin-2-yl)piperidine-2,6-dione], the IC50 stood at 0.11 ± 0.02 nM.

For `O=C1CCC(N2C(=O)c3cccc(SCCCc4ccc(CNC5CCCCC5)cc4)c3C2=O)C(=O)N1` (centres unmarked) [SIAIS1227069, 4-((3-(4-((cyclohexylamino)methyl)phenyl)propyl)thio)-2-(2,6-dioxopiperidin-3-yl)isoindoline-1,3-dione], the IC50 was 1.12 nM.

Take `O=C1CCC(N2Cc3c(SCCCc4ccc(CN5CCOCC5)cc4)cccc3C2=O)C(=O)N1` (centres unmarked) [SIAIS1227075, 3-(4-((3-(4-(morpholinomethyl)phenyl)propyl)thio)-1-oxoisoindolin-2-yl)piperidine-2,6-dione]: the IC50 was 0.499 nM.
